Entries after “also recorded” stand apart in the source; their conditions may differ.
Experiments:
3T3-L1 cells = test: Lipid accumulation in 3T3-L1 adipocytes (Oil Red O staining); assay type: cell-based, mouse; settings: 3T3-L1 murine adipocytes, G-1 during differentiation
Description: (§1) Mouse fibroblasts, NIH 3T3-L1 cells were grown in DMEM with 10% FBS and subcultured before reaching 70% confluence. For differentiation, cells were seeded in 24 well plates or 60 mm dishes and allowed to grow till confluent. Subsequently medium was changed and cells were kept for additional two days before adding the differentiation cocktail in the medium (0.5 mM isomethylbutylxanthine, 1 μM dexamethasone and 10 μg/mL insulin) for 3 days (with or without GPER selective agonist G-1). The medium was then changed to the regular DMEM with FBS as above.
(§2) Eight days after differentiation, adipocytes are briefly rinsed with PBS and fixed in 4% PFA for 30-60 min and washed with PBS. Freshly prepared Oil Red-O working solution was added to cells and incubated for ˜60 min at room temperature, washed t 3 times with PBS and air dried. Images were acquired or lipids extracted with isopropanol and absorbance at 520 nm to quantitate the lipids measured.

C2C12 cells = test: Glucose uptake in differentiated C2C12 myocytes; assay type: cell-based, mouse
Description: (§3) For human adipocytic differentiation, human preadipocytes were purchased from Zen-Bio and differentiated with or without GPER-selective agonist G-1. Mouse myoblasts, C2C12 were grown in low glucose DMEM with 10% FBS and subcultured before reaching 70-80% confluence. For differentiation into myocytes, cells were seeded on 12-well plates and at confluence were switched to DMEM containing 2% horse serum. The medium was changed every other day and cells were used for glucose uptake assay between 6-8 days post differentiation.
Differentiated C2C12 cells were washed twice with Krebs-Ringer phosphate buffer and incubated in serum free low glucose DMEM for 3 hours. Cells were then treated with 100 nM insulin for 15 min and subsequently incubated in Krebs-Ringer phosphate buffer containing […] of 2-deoxy-d-[^3H]glucose for 20 min. The reaction was terminated by adding ice-cold PBS on plates on ice. After three washes with PBS, the cells were dissolved in 0.1% sodium dodecyl sulfate and radioactivity was quantified by liquid scintillation counting. Nonspecific deoxyglucose uptake was measured in the presence of […] cytochalasin B and was subtracted from the total uptake to get specific glucose uptake.

PPARγ and ap2 = test: Expression of adipogenic markers in 3T3-L1 cells; assay type: cell-based, mouse; settings: 3T3-L1 cells differentiated in the presence of G-1
Description: as §1
(§4) Total RNA was extracted from frozen tissues (˜100 mg) or cultured cells using the RNeasy Mini Kit. Isolated RNA (˜100 ng) was used for cDNA synthesis using the ImProm-II™ Reverse Transcription System in a final reaction volume of 20 μL in a denaturation and extension cycle. Subsequently, quantitative real time PCR was carried out in a 7500 Fast Real-Time PCR System. Gene expression was normalized to 18S RNA as an internal reference and fold change over the control was calculated using the ddCt method. Quantitative real-time PCR analyses were performed in triplicate from a minimum of 5 separate animals.

[1] = system: differentiated murine adipocytes; test: Mitochondrial biogenesis in differentiated murine adipocytes; assay type: cell-based, mouse
Description: as §1

high fat diet male mice = test: Diet induced obesity (high fat diet) male mouse model; assay type: in vivo; settings: HFD males
Text: (§5) For females, an ovariectomized female mouse model, with ovary-intact control animals, fed a regular chow diet, was employed. Loss of the ovaries results in the loss of endogenous estrogenic protection towards metabolic pathophysiology and weight gain, resulting in increased overall weight gain, abdominal adiposity and ensuing metabolic (including glucose and lipid) dysfunction in ovariectomized mice compared to ovary-intact control animals. For males, the model employed involves diet-induced obesity. In the absence of the estrogenic protection as in female mice, male mice fed a high fat chow gain weight and suffer from metabolic pathophysiology compared to mice on normal chow. […].
(§6) For measurement of food intake, activity and energy expenditure, mice were placed in metabolic cages. All measurements were obtained using a computer-controlled indirect calorimetry system. Prior to data collection, mice were acclimatized in the chambers for 24 hours, after which data was collected for the subsequent 48 hours, including two complete light cycles (14 h) and two complete dark cycles (10 h). Oxygen consumption (VO2), carbon dioxide production (VCO2), activity and food consumption were measured for 48 hours. The animals had ad libitum access to standard rodent chow or high fat chow and water during the study. To detect ambulatory activity and position, beam breaks in all the three planes, X, Y and Z directions, were utilized to obtain total activity. To calculate oxygen consumption (VO2) and carbon dioxide production (VCO2) were assessed by measuring the gas concentrations at the inlet and outlet of the sealed chambers.
(§7) Post euthanasia, tissues (epididymal/perirenal fat, liver) were dissected and weighed. Tibia length was measured after clearing of soft tissue. For H&E staining, at sacrifice, tissues were fixed in buffered formalin for 24 hours and subsequently embedded in paraffin. Tissue sections (5 μm-thick) were stained with Hematoxylin and Eosin.
(§8) Prior to GTT and ITT, mice were fasted for 4 hours and basal glucose (0 min) was measured. Subsequently, mice were intraperitoneally injected with glucose (2 g/kg body weight) or insulin (0.5 U/kg body weight). After the injection, blood glucose was monitored at regular time intervals (15, 30, 60 and 120 min after injection) from tail nicks. Additionally, for measuring the fasting insulin, blood was collected from the tail nicks at 0 time point and plasma was separated and used for measuring the fasting insulin using a mouse Insulin ELISA kit. Blood glucose was monitored using a glucose meter.

[2] = system: ovariectomized female mice; test: Ovariectomized female mouse model of obesity and diabetes; assay type: in vivo; settings: OVX females
Text: as §5, §6, §7, §8, §4

human adipocytes = test: Lipid accumulation in human adipocytes (Oil Red O staining); assay type: cell-based; settings: G-1 during differentiation
Description: as §3, §2

[3] = system: AMP-activated protein kinase (AMPK); test: AMPK activation in differentiated murine adipocytes; assay type: cell-based, mouse
Description: as §1
Tissues were homogenized in RIPA buffer supplemented with sodium fluoride (50 mM), sodium orthovanadate (1 mM), phenylmethylsulfonylfluoride (1 mM), and protease cocktail. Protein amounts were quantified by Bradford method and equal amounts (30 μg) of protein were loaded for all the samples on 4-20% SDS-PAGE gel. Proteins were then transferred to polyvinylidene fluoride membrane, blocked with 3% newborn calf serum in TBST before overnight incubation with primary antibodies. Subsequently, blots were incubated with secondary HRP-conjugated antibodies and developed using SuperSignal West Pico Chemiluminescent Substrate. Blots were then scanned and quantified using ImageJ software.

With `CC(=O)c1ccc2c(c1)C1C=CCC1C(c1cc3c(cc1Br)OCO3)N2` (centres unmarked) [G-1] the lipid accumulation (3T3-L1 cells) was “decreased lipid accumulation; also recorded: inhibits lipid accumulation”, the “cellular uptake of glucose” value (C2C12 cells) was “increased the cellular uptake of glucose; also recorded: increases glucose uptake” and the “expression of adipogenic markers PPARγ and ap2” value (PPARγ and ap2) was “lower levels of adipogenic markers; also recorded: down regulates”. The mitochondrial biogenesis [1] was “increased the mitochondrial biogenesis; also recorded: increases mitochondrial biogenesis”, the fasting glucose levels (high fat diet male mice) was “lower fasting glucose levels; also recorded: decreases fasting blood glucose” and the “glucose tolerance (glucose tolerance test)” value (high fat diet male mice) was “improves glucose tolerance”. For the same compound, the “insulin sensitivity (insulin tolerance test)” value (high fat diet male mice) was “improved insulin sensitivity; also recorded: enhances insulin sensitivity”, the total body weight (high fat diet male mice; G-1 200 μg, 5 days per week, subcutaneously for 8 weeks vs vehicle) was “attenuates weight gain; also recorded: decrease in the total body weight” and the liver weights (high fat diet male mice; after 8 week treatment) was “significant decrease in liver weights; also recorded: lower”. The “perirenal adipose fat pad weights” value (high fat diet male mice; after 8 week treatment) was “significant decrease; also recorded: lower”, the “energy expenditure (O2 consumption)” value (high fat diet male mice; metabolic cages) was “increase in O2 consumption; also recorded: increased energy expenditure” and the “adipocyte size in perigonadal fat (H&E staining)” value [2] was “smaller adipocytes”. For the same compound, the “antioxidant markers in muscle and liver” value [2] was “increases antioxidant markers”, the fasting glucose levels [2] was “lower fasting glucose levels; also recorded: decreases fasting blood glucose” and the “glucose tolerance (glucose tolerance test)” value [2] was “improves glucose tolerance”. The “insulin sensitivity (insulin tolerance test)” value [2] was “enhances insulin sensitivity”, the total body weight ([2]; G-1 200 μg, 3 days per week, subcutaneously for 6 weeks vs vehicle) was “attenuates weight gain; also recorded: decrease in the total body weight” and the “weights of perigonadal fat pads” value ([2]; after 6 week treatment) was “decreased weights of perigonadal fat pads; also recorded: lower”. For the same compound, the “mRNA levels of pro-inflammatory, angiogenic and lipogenic markers in adipose tissue” value ([2]; gonadal fat, quantitative PCR) was “lower; also recorded: reduces inflammatory, angiogenic and lipogenic markers”, the “energy expenditure (O2 consumption)” value ([2]; metabolic cages) was “increase in O2 consumption; also recorded: increased energy expenditure” and the “pro-inflammatory and lipogenic markers in skeletal muscle and liver” value ([2]; quantitative PCR) was “decreased pro-inflammatory and lipogenic markers; also recorded: reduces lipogenic and inflammation”. For the same compound, the lipid accumulation (human adipocytes) was “decreased lipid accumulation; also recorded: inhibits lipid accumulation” and the AMPK activation [3] was “activated AMP-activated protein kinase (AMPK); also recorded: activates AMPK”.

— patent publication US10682341B2, “Method for treating obesity, diabetes, cardiovascular and kidney diseases by regulating GPR30/GPER activity” (STC.UNM, priority 2015, dated 2020)
